According to publication PMC8840742 (Molecules, 2022):
Like-named read-outs stand apart in the source and are kept apart here.

Experiments:
SARS-CoV-2 [1] = settings: for SI (CC50/EC50) / anti-SARS-CoV-2 activity in words: VeroE6 cells; for anti-SARS-CoV-2 activity in words: SAR discussion; for potency loss / fold less active relative to compound 8 (SARS-CoV-2): relative to compound 8, VeroE6
in vitro [2] = settings: African green monkey
SARS-CoV-2 [3] = test: microbe, parasite or virus in culture; settings: Severe acute respiratory syndrome coronavirus 2, 96 h, read-out: SARS-CoV-2 EC50
SARS-CoV-1 = test: microbe, parasite or virus in culture; assay type: cell-based; settings: Severe acute respiratory syndrome coronavirus, Vero C1008, read-out: SARS-CoV-1 EC50
MERS-CoV = test: microbe, parasite or virus in culture; assay type: cell-based; settings: Middle East respiratory syndrome-related coronavirus, Huh-7, 42 h, read-out: MERS EC50
SARS-CoV-2 Mpro = SARS-CoV-2 Mpro (Severe acute respiratory syndrome coronavirus 2, UniProt P0DTD1); test: SARS-CoV-2 main protease (Mpro) FRET assay; assay type: biochemical; settings: highest tested concentration of 100 µM
Procedure: Compounds were tested in a Förster resonance energy transfer (FRET) assay for inhibition of the SARS-CoV-2 Mpro. The peptide Dabcyl-KTSAVLQ↓SGFRKM-E(Edans)-NH2 (Biosyntan, Berlin, Germany) (↓ indicates the cleavage site), corresponding to the P7–P6′ residues of the nsp4–nsp5 processing site of the viral polyprotein pp1a/pp1ab, was used as the substrate. Quenching of the Edans fluorescence by the Dabcyl residue was eliminated after cleavage of the scissile bond between P1-Gln and P1′-Ser and the difference in fluorescence emission was measured with a Tecan Spark fluorescence plate reader, operated at an excitation wavelength of 360 nm and an emission wavelength of 460 nm.
Candidate compounds were kept in a DMSO stock solution; the Mpro was in a buffer containing 20 mM HEPES, 120 mM NaCl, 0.4 mM EDTA, 20% glycerol, pH 7.0. DTT (4 mM) was added to the buffer prior to running the assay. Following incubation of 50 nM SARS-CoV-2 Mpro with 100 µM of the candidate compound for 10 min at 37 °C, the reaction was initiated by the addition of 10 µM of the FRET substrate to each well. The final DMSO concentration was <2%.

[4] = target: SARS-CoV-2 nsp14 (N7-methyltransferase activity) (Severe acute respiratory syndrome coronavirus 2, UniProt P0DTD1); test: Nsp14 RapidFire MS assay; assay type: biochemical; settings: highest tested concentration of 100 µM
[5] = target: SARS-CoV-2 replication–transcription complex (Severe acute respiratory syndrome coronavirus 2, UniProt P0DTD1); test: SARS-CoV-2 polymerase assay; assay type: biochemical; settings: highest tested concentration of 100 µM
[6] = system: SARS-CoV-2 spike pseudotyped VSV; test: organism not typed; assay type: cell-based; settings: Vero C1008, 24 h, read-out: SARS-CoV-2 pseudovirus neutralization EC50 (block of virus entry)
[7] = system: MERS-CoV spike pseudotyped VSV; test: organism not typed; assay type: cell-based; settings: Vero C1008, 24 h, read-out: MERS pseudovirus neutralization EC50 (block of virus entry)
cathepsin L = cathepsin L (Homo sapiens, UniProt P07711); test: Cathepsin L inhibition; assay type: biochemical; settings: human protease involved in SARS-CoV-2 entry
cathepsin L, sequence (P07711 114-333): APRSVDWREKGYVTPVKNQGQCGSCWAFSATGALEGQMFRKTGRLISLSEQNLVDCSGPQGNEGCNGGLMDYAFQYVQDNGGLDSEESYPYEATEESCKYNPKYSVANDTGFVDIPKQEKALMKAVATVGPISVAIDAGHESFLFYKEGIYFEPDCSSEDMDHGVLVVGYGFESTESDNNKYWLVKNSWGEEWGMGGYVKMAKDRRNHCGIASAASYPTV

cathepsin B = cathepsin B (Homo sapiens, UniProt P07858); test: Cathepsin B inhibition; assay type: biochemical; settings: human protease involved in SARS-CoV-2 entry
in vitro [8] = settings: human
Chikungunya virus = Chikungunya virus antiviral assay in Vero A cells; settings: read-out: Chikungunya virus EC50
VeroE6 cells = test: Cytotoxicity in mock-infected VeroE6 cells (MTS assay); settings: read-out: MTS CC50; mock-infected VeroE6 cells, MTS assay
[9] = as above; settings: African green monkey

Row | Molecule | SI (CC50/EC50) (SARS-CoV-2 [1]) | CC50 (in vitro [2]) [µM] | EC50 (SARS-CoV-2 [3]) [µM] | also measured
1 | c1ccc(-c2nc(-c3ccncc3)no2)c(OC2CCN(CC3CCCC3)C2)c1 (stereo not drawn) [Compound 9, 5-[2-[1-(Cyclopentylmethyl)pyrrolidin-3-yl]oxyphenyl]-3-(4-pyridyl)-1,2,4-oxadiazole] | 15 | 24 ± 8 | 1.6 ± 0.8 | –
2 | c1ccc(-c2noc(-c3ccccc3OC3CCN(C4CCCC4)C3)n2)cc1 (stereo not drawn) [Compound 26, 5-[2-(1-Cyclopentylpyrrolidin-3-yl)oxyphenyl]-3-phenyl-1,2,4-oxadiazole] | <1 | 9 ± 2.5 | > 50 | anti-SARS-CoV-2 activity in words (SARS-CoV-2 [1]): showed only cytotoxicity
3 | c1ccc(-c2nc(-c3ccnnc3)no2)c(OC2CCN(C3CCCC3)C2)c1 (stereo not drawn) [Compound 25, 5-[2-(1-Cyclopentylpyrrolidin-3-yl)oxyphenyl]-3-pyridazin-4-yl-1,2,4-oxadiazole] | – | > 50 | > 50 | potency loss / fold less active relative to compound 8 (SARS-CoV-2) (SARS-CoV-2 [1]): more than 10 fold
4 | c1ccc(-c2nc(-c3ccncc3)no2)c(OC2CCN(C3CCCC3)C2)c1 (stereo not drawn) [Compound 8, 5-[2-(1-Cyclopentylpyrrolidin-3-yl)oxyphenyl]-3-(4-pyridyl)-1,2,4-oxadiazole] | 7.6 | 41 ± 25 | 5.4 ± 3.5 | –
5 | Cc1cnccc1-c1noc(-c2ccccc2OC2CCN(C3CCCC3)C2)n1 (stereo not drawn) [Compound 31, 5-[2-(1-Cyclopentylpyrrolidin-3-yl)oxyphenyl]-3-(3-methyl-4-pyridyl)-1,2,4-oxadiazole] | – | 18 ± 9 | 1.8 ± 0.3 | –
6 | FC(F)(F)c1ccncc1-c1noc(-c2ccccc2OC2CCN(C3CCCC3)C2)n1 (stereo not drawn) [Compound 29, 5-[2-(1-Cyclopentylpyrrolidin-3-yl)oxyphenyl]-3-[4-(trifluoromethyl)-3-pyridyl]-1,2,4-oxadiazole] | 8.4 | 26 ± 7 | 3.1 ± 1.3 | –
7 | COc1ccc(-c2noc(-c3ccccc3OC3CCN(C4CCCC4)C3)n2)cn1 (stereo not drawn) [Compound 27, 5-[2-(1-Cyclopentylpyrrolidin-3-yl)oxyphenyl]-3-(6-methoxy-3-pyridyl)-1,2,4-oxadiazole] | 4.9 | 20 ± 5.5 | 4.1 ± 2.2 | –
8 | c1cncc(-c2noc(-c3ccccc3OC3CCN(C4CCCC4)C3)n2)c1 (stereo not drawn) [Compound 23, 5-[2-(1-Cyclopentylpyrrolidin-3-yl)oxyphenyl]-3-(3-pyridyl)-1,2,4-oxadiazole] | >6 | > 50 | 8.4 ± 5.7 | anti-SARS-CoV-2 activity in words (SARS-CoV-2 [1]): equipotent to 8
9 | c1ccc(-c2nc(-c3cncnc3)no2)c(OC2CCN(C3CCCC3)C2)c1 (stereo not drawn) [Compound 24, 5-[2-(1-Cyclopentylpyrrolidin-3-yl)oxyphenyl]-3-pyrimidin-5-yl-1,2,4-oxadiazole] | >3.3 | > 50 | 15 ± 2 | potency loss / fold less active relative to compound 8 (SARS-CoV-2) (SARS-CoV-2 [1]): 3 fold
10 | N#C[C@@]1(c2ccc3c(N)ncnn23)O[C@H](CO)[C@@H](O)[C@H]1O [GS-441524, reference compound] | – | – | 0.82 | –
11 | c1ccc(-c2nc(-c3ccncc3)no2)c(OCC2CCN(CC3CCCC3)C2)c1 (stereo not drawn) [Compound 11, 5-[2-[[1-(Cyclopentylmethyl)pyrrolidin-3-yl]methoxy]phenyl]-3-(4-pyridyl)-1,2,4-oxadiazole] | – | > 50 | 40 ± 14 | fold less active than compound 10 (SARS-CoV-2) (SARS-CoV-2 [1]; relative to compound 10, VeroE6): 20 fold
12 | Cc1ccncc1-c1noc(-c2ccccc2OC2CCN(C3CCCC3)C2)n1 (stereo not drawn) [Compound 30, 5-[2-(1-Cyclopentylpyrrolidin-3-yl)oxyphenyl]-3-(4-methyl-3-pyridyl)-1,2,4-oxadiazole] | 33.6 | 47 ± 1 | 1.4 ± 1 | –
13 | c1ccc(-c2nc(-c3ccncc3)no2)c(OCCNC2CCCC2)c1 [Compound 13, N-[2-[2-[3-(4-Pyridyl)-1,2,4-oxadiazol-5-yl]phenoxy]ethyl]cyclopentanamine] | 5.5 | 46 ± 13 | 8.4 ± 2.5 | –
14 | FC(F)(F)c1cncc(-c2noc(-c3ccccc3OC3CCN(C4CCCC4)C3)n2)c1 (stereo not drawn) [Compound 28, 5-[2-(1-Cyclopentylpyrrolidin-3-yl)oxyphenyl]-3-[5-(trifluoromethyl)-3-pyridyl]-1,2,4-oxadiazole] | 4.8 | 10 ± 1 | 2.1 ± 0.1 | –
15 | c1ccc(CCN2CCC(Oc3ccccc3-c3nc(-c4ccncc4)no3)C2)cc1 (stereo not drawn) [Compound 1, 5-(2-((1-Phenethylpyrrolidin-3-yl)oxy)phenyl)-3-(pyridin-4-yl)-1,2,4-oxadiazole] | 4.5 | 21 ± 11 | 4.7 ± 3 | EC50 (SARS-CoV-1): 4.2 ± 0.2 µM; EC50 (MERS-CoV): 5 µM; inhibitory activity on SARS-CoV-2 Mpro (SARS-CoV-2 Mpro): did not show any inhibitory activity; inhibitory activity on SARS-CoV-2 nsp14 (N7-methyltransferase activity) [4]: did not show any inhibitory activity; inhibitory activity on SARS-CoV-2 replication–transcription complex [5]: did not show any inhibitory activity; EC50 [6]: 1.25 µM; EC50 [7]: 3.4 µM; activity against cathepsin L (cathepsin L): inactive; activity against cathepsin B (cathepsin B): inactive; CC50 (in vitro [8]): > 20 µM; EC50 (Chikungunya virus): > 100 µM
16 | 5-[2-(1-Cyclopentylpyrrolidin-3-yl)oxyphenyl]-3-(4-pyridyl)-1,2,4-thiadiazole [Compound 49] | 2.6 | – | – | EC50 (SARS-CoV-2 [1]; read-out: SARS-CoV-2 EC50): 5.4 ± 2.1 µM; CC50 (VeroE6 cells): 14 ± 1 µM
17 | c1ccc(-c2nc(-c3ccncc3)no2)c(OCC2CCN(C3CCCC3)C2)c1 (stereo not drawn) [Compound 10, 5-[2-[(1-Cyclopentylpyrrolidin-3-yl)methoxy]phenyl]-3-(4-pyridyl)-1,2,4-oxadiazole] | 15.9 | 27 ± 6 | 1.7 ± 0.3 | –
18 | c1ccc(CCN2CC[C@@H](Oc3ccccc3-c3nc(-c4ccncc4)no3)C2)cc1 [Compound 1a, 5-[2-[(3R)-1-(2-Phenylethyl)pyrrolidin-3-yl]oxyphenyl]-3-(4-pyridyl)-1,2,4-oxadiazole] | 8.1 | 29 ± 24 | 3.6 ± 1.8 | –
19 | c1ccc(-c2noc(-c3ccncc3)n2)c(OC2CCN(C3CCCC3)C2)c1 (stereo not drawn) [Compound 35, 3-[2-(1-Cyclopentylpyrrolidin-3-yl)oxyphenyl]-5-(4-pyridyl)-1,2,4-oxadiazole] | 4.8 | 30 ± 12 | 6.2 ± 2.7 | –
20 | c1ccc(CCN2CC[C@H](Oc3ccccc3-c3nc(-c4ccncc4)no3)C2)cc1 [Compound 1b, 5-[2-[(3S)-1-(2-Phenylethyl)pyrrolidin-3-yl]oxyphenyl]-3-(4-pyridyl)-1,2,4-oxadiazole] | 12.8 | 18 ± 11 | 1.4 ± 0.1 | –
21 | CN(CCOc1ccccc1-c1nc(-c2ccncc2)no1)C1CCCC1 [Compound 14, N-Methyl-N-[2-[2-[3-(4-pyridyl)-1,2,4-oxadiazol-5-yl]phenoxy]ethyl]cyclopentanamine] | 4.4 | 37 ± 11 | 8.5 ± 4 | –
22 | c1ccc(-c2nnc(-c3ccncc3)o2)c(OC2CCN(C3CCCC3)C2)c1 (stereo not drawn) [Compound 38, 2-[2-(1-Cyclopentylpyrrolidin-3-yl)oxyphenyl]-5-(4-pyridyl)-1,3,4-oxadiazole] | 3.1 | 47 ± 15 | 15 ± 3 | potency loss / fold less active relative to compound 8 (SARS-CoV-2) (SARS-CoV-2 [1]): 3 fold
23 | c1ccc(-c2nc(-c3ccncc3)no2)c(OC2CCN(C3CCCC3)CC2)c1 [Compound 12, 5-[2-[(1-Cyclopentyl-4-piperidyl)oxy]phenyl]-3-(4-pyridyl)-1,2,4-oxadiazole] | 27.1 | 46 ± 18 | 1.7 ± 0.5 | –
24 | c1ccc(-c2nc(-c3ccncc3)ns2)c(OC2CCN(C3CCCC3)C2)c1 (stereo not drawn) [Compound 46, 5-[2-(1-Cyclopentylpyrrolidin-3-yl)oxyphenyl]-3-(4-pyridyl)-1,2,4-thiadiazole] | 6.5 | – | 2.3 ± 0.4 | CC50 [9]: 15 ± 1 µM
